Reference: ChEMBL document CHEMBL1121908, “Membrane effects of antiinflammatory agents. 1. Interaction of sulindac and its metabolites with phospholipid membrane, a magnetic resonance study” (J Med Chem, 1981)

Experiments:
Assay type in all cases: subcellular
Liposome [1] = assay: The compound was evaluated for percent incorporation in DOPC vesicles, when compound to lipid mol ratio is 2
Liposome [2] = assay: The compound was evaluated for percent incorporation in DOPC vesicles, when compound to lipid mol ratio is 0.1
Liposome [3] = assay: The compound was evaluated for percent incorporation in DOPC vesicles, when compound to lipid mol ratio is 3.5

Row | Incorporation (Liposome [1]) [%] | Incorporation (Liposome [2]) [%] | Incorporation (Liposome [3]) [%] | Structure (SMILES)
1 | 5 | 7 | – | CC1=C(CC(=O)O)c2cc(F)ccc2/C1=C\c1ccc([S+](C)[O-])cc1 (stereo not given)
2 | 41 | 74 | 25 | CSc1ccc(/C=C2/C(C)=C(CC(=O)O)c3cc(F)ccc32)cc1
